Measurements: ChEMBL document CHEMBL4616684, “Potential Cancer Treatment by Agonists of the Stimulator of Interferon Genes” (ACS Med Chem Lett, 2020)

Tests used:
[1] = target: Stimulator of interferon genes protein (Homo sapiens, UniProt Q86WV6, G230A/R293Q/R71H); assay: Activation of full length human STNG R71H/G230A/R293Q mutant expressed in Trichoplusia ni cell membrane incubated for 60 mins followed by addition of [3H]cGAMP by competitive binding assay; format: cell membranes
[2] = target: Stimulator of interferon genes protein (Homo sapiens) (UniProt Q86WV6); assay: Agonist activity at STING in human THP1 cells assessed as assessed as increase in IFNbeta secretion at 30 uM measured after 5 hrs by AlphaLISA assay relative to 2'3'-cGAMP; format: cell-based; details: THP-1
Sequence of Stimulator of interferon genes protein (Homo sapiens) (Q86WV6 whole entry): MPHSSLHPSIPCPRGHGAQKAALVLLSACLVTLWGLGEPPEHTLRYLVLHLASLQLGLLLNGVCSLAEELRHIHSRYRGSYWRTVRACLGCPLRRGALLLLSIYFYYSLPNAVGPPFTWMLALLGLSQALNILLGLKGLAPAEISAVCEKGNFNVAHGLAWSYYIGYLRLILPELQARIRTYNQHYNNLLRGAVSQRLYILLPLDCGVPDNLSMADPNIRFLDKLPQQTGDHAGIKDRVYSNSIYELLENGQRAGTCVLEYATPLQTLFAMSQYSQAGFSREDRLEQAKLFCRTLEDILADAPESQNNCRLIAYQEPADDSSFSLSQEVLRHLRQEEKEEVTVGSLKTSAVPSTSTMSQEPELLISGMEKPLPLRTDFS

Sequence of Stimulator of interferon genes protein (Q86WV6 whole entry R71H/G230A/R293Q): as the sequence (Q86WV6 whole entry) above, with R71H, G230A, R293Q counted along it

Compound: COc1cc2sc(C(=O)C[C@H](C)C(=O)O)nc2cc1Br
- EC50 [1]: 10.6 µM
- Activity [2]: 11%

Compound: CCC(CC(=O)c1cc2nc(OC)c(OC)cc2s1)C(=O)O (configuration not stated)
- EC50 [1]: 1.75 µM
- Activity [2]: 85%

Compound: COc1cc2sc(C(=O)C[C@H](C)C(=O)O)nc2nc1OC
- EC50 [1]: 10.1 µM
- Activity [2]: 14%

Compound: COc1cc2sc(C(=O)C3CC3C(=O)O)cc2nc1OC (configuration not stated)
- EC50 [1]: 1.15 µM
- Activity [2]: 100%

Compound: COc1cc2cc(C(=O)CCC(=O)O)sc2nc1OC
- EC50 [1]: 5.51 µM
- Activity [2]: 146%

Compound: COc1cc2nc(C(=O)CCC(=O)O)sc2cc1OC
- EC50 [1]: 13.3 µM
- Activity [2]: 56%
